From PubChem BioAssay (NCI)
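96-well plates; 48 h exposure; 5 concentrations. Endpoints by linear interpolation between flanking doses. Not reached: highest tested concentration assigned. TGI: total growth inhibition.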

Tests used:
Test in all cases: NCI anticancer screen, dose series, 48 h
786-0 renal = test system: 786-0 renal
A498 renal = test system: A498 renal
A549 NSCLC = test system: A549 NSCLC
ACHN renal = test system: ACHN renal
BT-549 breast = test system: BT-549 breast
CAKI-1 renal = test system: CAKI-1 renal
CCRF-CEM leukemia = test system: CCRF-CEM leukemia
COLO 205 colon = test system: COLO 205 colon
DU-145 prostate = test system: DU-145 prostate
EKVX NSCLC = test system: EKVX NSCLC
HCC-2998 colon = test system: HCC-2998 colon
HCT-116 colon = test system: HCT-116 colon
HCT-15 colon = test system: HCT-15 colon
HL-60(TB) leukemia = test system: HL-60(TB) leukemia
HOP-62 NSCLC = test system: HOP-62 NSCLC
HOP-92 NSCLC = test system: HOP-92 NSCLC
HT29 colon = test system: HT29 colon
IGROV1 ovarian = test system: IGROV1 ovarian
K-562 leukemia = test system: K-562 leukemia
KM12 colon = test system: KM12 colon
LOX IMVI melanoma = test system: LOX IMVI melanoma
M14 melanoma = test system: M14 melanoma
MALME-3M melanoma = test system: MALME-3M melanoma
MCF7 breast = test system: MCF7 breast
MDA-MB-231 breast = test system: MDA-MB-231 breast
MDA-MB-435 = test system: MDA-MB-435
MDA-N = test system: MDA-N
MOLT-4 leukemia = test system: MOLT-4 leukemia
NCI-H226 lung = test system: NCI-H226 lung
NCI-H23 lung = test system: NCI-H23 lung
NCI-H460 lung = test system: NCI-H460 lung
NCI-H522 lung = test system: NCI-H522 lung
NCI/ADR-RES ovarian = test system: NCI/ADR-RES ovarian
OVCAR-3 ovarian = test system: OVCAR-3 ovarian
OVCAR-4 ovarian = test system: OVCAR-4 ovarian
OVCAR-5 ovarian = test system: OVCAR-5 ovarian
OVCAR-8 ovarian = test system: OVCAR-8 ovarian
PC-3 prostate = test system: PC-3 prostate
RPMI-8226 leukemia = test system: RPMI-8226 leukemia
RXF 393 renal = test system: RXF 393 renal
SF-268 CNS = test system: SF-268 CNS
SF-295 CNS = test system: SF-295 CNS
SF-539 CNS = test system: SF-539 CNS
SK-MEL-2 melanoma = test system: SK-MEL-2 melanoma
SK-MEL-28 melanoma = test system: SK-MEL-28 melanoma
SK-MEL-5 melanoma = test system: SK-MEL-5 melanoma
SK-OV-3 ovarian = test system: SK-OV-3 ovarian
SN12C renal = test system: SN12C renal
SNB-19 CNS = test system: SNB-19 CNS
SNB-75 CNS = test system: SNB-75 CNS
SR leukemia = test system: SR leukemia
SW-620 colon = test system: SW-620 colon
T-47D breast = test system: T-47D breast
TK-10 renal = test system: TK-10 renal
U251 CNS = test system: U251 CNS
UACC-257 melanoma = test system: UACC-257 melanoma
UACC-62 melanoma = test system: UACC-62 melanoma
UO-31 renal = test system: UO-31 renal
HS 578T breast = test system: HS 578T breast

OCCOCCO/N=C1\C(c2c(O)[nH]c3ccccc23)=Nc2ccccc21
TGI (786-0 renal): 12.1 µM
TGI (A498 renal): 0.839 µM
TGI (A549 NSCLC): 17.1 µM
TGI (ACHN renal): 10.3 µM
TGI (BT-549 breast): 18.3 µM
TGI (CAKI-1 renal): 10.8 µM
TGI (CCRF-CEM leukemia): > 100 µM
TGI (COLO 205 colon): 3.38 µM
TGI (DU-145 prostate): 22.8 µM
TGI (EKVX NSCLC): 18.2 µM
TGI (HCC-2998 colon): 11.6 µM
TGI (HCT-116 colon): 3.95 µM
TGI (HCT-15 colon): > 52.4 µM
TGI (HL-60(TB) leukemia): 39.3 µM
TGI (HOP-62 NSCLC): 27.6 µM
TGI (HOP-92 NSCLC): 69.6 µM
TGI (HT29 colon): 7.11 µM
TGI (IGROV1 ovarian): 5.35 µM
TGI (K-562 leukemia): > 100 µM
TGI (KM12 colon): 14.1 µM
TGI (LOX IMVI melanoma): 11.6 µM
TGI (M14 melanoma): > 100 µM
TGI (MALME-3M melanoma): 17.5 µM
TGI (MCF7 breast): 9.73 µM
TGI (MDA-MB-231 breast): 29.9 µM
TGI (MDA-MB-435): 27.8 µM
TGI (MDA-N): 26.7 µM
TGI (MOLT-4 leukemia): > 100 µM
TGI (NCI-H226 lung): 10.3 µM
TGI (NCI-H23 lung): 29.3 µM
TGI (NCI-H460 lung): 15.3 µM
TGI (NCI-H522 lung): 17 µM
TGI (NCI/ADR-RES ovarian): > 49.2 µM
TGI (OVCAR-3 ovarian): 10.2 µM
TGI (OVCAR-4 ovarian): 43.1 µM
TGI (OVCAR-5 ovarian): 20.5 µM
TGI (OVCAR-8 ovarian): 27.9 µM
TGI (PC-3 prostate): 18.1 µM
TGI (RPMI-8226 leukemia): > 33.2 µM
TGI (RXF 393 renal): 6.42 µM
TGI (SF-268 CNS): 17.8 µM
TGI (SF-295 CNS): 10.2 µM
TGI (SF-539 CNS): 11.5 µM
TGI (SK-MEL-2 melanoma): 13.7 µM
TGI (SK-MEL-28 melanoma): > 85.2 µM
TGI (SK-MEL-5 melanoma): 6 µM
TGI (SK-OV-3 ovarian): 3.27 µM
TGI (SN12C renal): 17.9 µM
TGI (SNB-19 CNS): 33.7 µM
TGI (SNB-75 CNS): 13.8 µM
TGI (SR leukemia): > 100 µM
TGI (SW-620 colon): > 100 µM
TGI (T-47D breast): > 44.6 µM
TGI (TK-10 renal): 20.9 µM
TGI (U251 CNS): 16.8 µM
TGI (UACC-257 melanoma): > 73.1 µM
TGI (UACC-62 melanoma): 6.99 µM
TGI (UO-31 renal): 6.48 µM

COc1ccc(NC(C)=O)cc1N1C(=O)/C(=C\c2cccc(Oc3ccccc3)c2)S(=O)(=O)C1c1ccccc1 (configuration not stated)
TGI (786-0 renal): > 100 µM
TGI (A498 renal): > 100 µM
TGI (A549 NSCLC): > 100 µM
TGI (ACHN renal): > 100 µM
TGI (BT-549 breast): > 100 µM
TGI (CAKI-1 renal): 44.8 µM
TGI (CCRF-CEM leukemia): 83.8 µM
TGI (COLO 205 colon): > 100 µM
TGI (DU-145 prostate): > 100 µM
TGI (EKVX NSCLC): > 100 µM
TGI (HCC-2998 colon): > 100 µM
TGI (HCT-116 colon): 31.3 µM
TGI (HCT-15 colon): > 100 µM
TGI (HL-60(TB) leukemia): 40.5 µM
TGI (HOP-62 NSCLC): > 100 µM
TGI (HOP-92 NSCLC): > 100 µM
TGI (HT29 colon): 43.7 µM
TGI (IGROV1 ovarian): > 100 µM
TGI (K-562 leukemia): 68.9 µM
TGI (KM12 colon): > 100 µM
TGI (LOX IMVI melanoma): > 100 µM
TGI (M14 melanoma): > 100 µM
TGI (MALME-3M melanoma): > 100 µM
TGI (MCF7 breast): > 100 µM
TGI (MDA-MB-231 breast): > 100 µM
TGI (MDA-MB-435): > 100 µM
TGI (MDA-N): 53.6 µM
TGI (MOLT-4 leukemia): 59 µM
TGI (NCI-H226 lung): > 100 µM
TGI (NCI-H23 lung): > 100 µM
TGI (NCI-H460 lung): > 100 µM
TGI (NCI-H522 lung): > 100 µM
TGI (NCI/ADR-RES ovarian): > 100 µM
TGI (OVCAR-3 ovarian): > 100 µM
TGI (OVCAR-4 ovarian): > 100 µM
TGI (OVCAR-5 ovarian): > 100 µM
TGI (OVCAR-8 ovarian): > 100 µM
TGI (PC-3 prostate): > 100 µM
TGI (RPMI-8226 leukemia): 73.6 µM
TGI (RXF 393 renal): > 100 µM
TGI (SF-295 CNS): > 100 µM
TGI (SF-539 CNS): 74.6 µM
TGI (SK-MEL-2 melanoma): > 100 µM
TGI (SK-MEL-28 melanoma): > 100 µM
TGI (SK-MEL-5 melanoma): > 100 µM
TGI (SK-OV-3 ovarian): > 100 µM
TGI (SN12C renal): 73 µM
TGI (SNB-19 CNS): > 100 µM
TGI (SNB-75 CNS): > 100 µM
TGI (SR leukemia): 23.9 µM
TGI (SW-620 colon): > 100 µM
TGI (T-47D breast): > 100 µM
TGI (TK-10 renal): > 100 µM
TGI (U251 CNS): > 100 µM
TGI (UACC-257 melanoma): > 100 µM
TGI (UACC-62 melanoma): > 100 µM
TGI (UO-31 renal): > 100 µM

CC(C)=NNC1=NC(C)(C)P(=O)(NNc2ncccn2)S1 (configuration not stated)
TGI (786-0 renal): > 100 µM
TGI (A498 renal): > 100 µM
TGI (A549 NSCLC): > 100 µM
TGI (ACHN renal): > 100 µM
TGI (BT-549 breast): > 100 µM
TGI (CAKI-1 renal): > 100 µM
TGI (DU-145 prostate): > 100 µM
TGI (EKVX NSCLC): > 100 µM
TGI (HCC-2998 colon): > 100 µM
TGI (HCT-116 colon): > 100 µM
TGI (HCT-15 colon): > 100 µM
TGI (HOP-62 NSCLC): > 100 µM
TGI (HOP-92 NSCLC): > 100 µM
TGI (HS 578T breast): > 100 µM
TGI (HT29 colon): > 100 µM
TGI (IGROV1 ovarian): > 100 µM
TGI (K-562 leukemia): > 100 µM
TGI (M14 melanoma): > 100 µM
TGI (MCF7 breast): > 100 µM
TGI (MDA-MB-231 breast): > 100 µM
TGI (MDA-MB-435): > 100 µM
TGI (MDA-N): > 100 µM
TGI (MOLT-4 leukemia): > 100 µM
TGI (NCI-H23 lung): > 100 µM
TGI (NCI-H460 lung): > 100 µM
TGI (NCI-H522 lung): > 100 µM
TGI (OVCAR-3 ovarian): > 100 µM
TGI (OVCAR-4 ovarian): > 100 µM
TGI (OVCAR-5 ovarian): > 100 µM
TGI (OVCAR-8 ovarian): > 100 µM
TGI (PC-3 prostate): > 100 µM
TGI (RXF 393 renal): > 100 µM
TGI (SF-268 CNS): > 100 µM
TGI (SF-295 CNS): > 100 µM
TGI (SF-539 CNS): > 100 µM
TGI (SK-MEL-2 melanoma): > 100 µM
TGI (SK-MEL-28 melanoma): > 100 µM
TGI (SK-MEL-5 melanoma): > 100 µM
TGI (SK-OV-3 ovarian): > 100 µM
TGI (SNB-19 CNS): > 100 µM
TGI (SW-620 colon): > 100 µM
TGI (T-47D breast): > 100 µM
TGI (TK-10 renal): > 100 µM
TGI (U251 CNS): > 100 µM
TGI (UACC-257 melanoma): > 100 µM
TGI (UACC-62 melanoma): > 100 µM
TGI (UO-31 renal): > 100 µM
